US20260273072A1, “NOVEL PLK1 DEGRADATION INDUCING COMPOUND” (UPPTHERA, INC., priority 2023, published 2026)

What was measured:
Type in all cases: cell-based
[1] = molecular target: T1, PLK1 (Homo sapiens, UniProt P53350); test: Luciferase assay for PLK1 in HeLa LgBit (Plk1-HiBit KI) cell line; details: 300 nM compound, luminescence after 9 hours
T1 construct: endogenous in cells; host or cells: HeLa LgBit (Plk1-HiBit KI): HeLa stably expressing LgBit, with a CRISPR/Cas9 knock-in of HiBit at the endogenous PLK1 locus
T1 sequence (P53350 whole entry): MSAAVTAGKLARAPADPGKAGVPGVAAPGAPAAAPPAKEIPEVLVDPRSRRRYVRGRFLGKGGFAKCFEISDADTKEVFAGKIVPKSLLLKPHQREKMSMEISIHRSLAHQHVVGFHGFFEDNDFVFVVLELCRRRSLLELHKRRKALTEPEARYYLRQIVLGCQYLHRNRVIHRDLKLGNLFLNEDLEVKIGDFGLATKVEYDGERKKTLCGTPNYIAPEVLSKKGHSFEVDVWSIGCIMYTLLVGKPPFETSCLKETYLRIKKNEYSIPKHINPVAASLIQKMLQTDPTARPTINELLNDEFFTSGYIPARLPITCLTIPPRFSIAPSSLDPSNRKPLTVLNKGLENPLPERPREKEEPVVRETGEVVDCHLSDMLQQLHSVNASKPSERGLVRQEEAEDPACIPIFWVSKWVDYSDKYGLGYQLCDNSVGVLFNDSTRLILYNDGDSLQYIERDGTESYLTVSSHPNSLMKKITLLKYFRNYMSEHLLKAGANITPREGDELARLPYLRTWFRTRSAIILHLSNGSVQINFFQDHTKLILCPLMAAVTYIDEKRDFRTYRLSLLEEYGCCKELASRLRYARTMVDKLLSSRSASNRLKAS
Method: 2. Luciferase Assay for PLK1
(1) Preparation and Culture of HeLa LgBit (Plk1-HiBit KI) Cell Line
A HeLa cell line in which the LgBit vector was transfected and expressed stably was prepared. Then, after constructing gRNA and donor to express the HiBit amino acid sequence behind the C-terminal of the PLK1 gene, which was inherent in the cell, it was inserted into the cell together with a vector capable of expressing CRISPR/Cas9. Only the cells in which the insertion was completed and knock-in had progressed were selected, sub-cultured and used.
For cell culture, DMEM (Gibco), FBS (Gibco), PS (Gibco), […] cell culture dish (SPL), […] cell culture dish (SPL), 96-well culture plate (SPL), PBS pH 7.4 (Gibco), TrypLE™ Express (Gibco), Cell counter (Thermo Fisher Scientific) and 0.4% Trypan Blue Solution (DYNEBIO) were used.
(2) Treatment of Compounds of the Present Invention and Method of Luciferase Assay
In the case of HeLa LgBit (Plk1-HiBit KI), the compounds were treated after being released after thymidine block, and the process was as follows. Thymidine (Sigma-Aldrich) was completely dissolved in ddH2O and used in the experiment. For thymidine block, the products were treated with 2 mM of thymidine and then incubated for 24 hours. For release and chemical treatment, the medium was suctioned and washed with 1×PBS. TrypLE™ (Gibco) was added and incubated in 37° C. CO2 incubator (Thermo Fisher Scientific) for 5 mins. Cells neutralized by adding complete media were counted through a counter. For each well of a 96-well culture plate (SPL), 3.3×10^4 cells and a total medium volume of 150 μl were seeded and incubated in a CO2 incubator.
Each cell line was incubated in a CO2 incubator for 18 hours, and Endurazine (Promega, Cat. No. N257B) was added to each well to make up 4% of the total volume. After adding compounds of Examples in a 96-well white plate (SPL) to a concentration of 300 nM, the wavelength of the plate reader (BMG Labtech, CLARIOstar Plus) was set to 470-480 nm, and then the luminescence was tracked in real time.
In Table 2, Activity represents the ratio of the luminescence value of each Exemplary Compound treatment group to DMSO treatment group (+++: <0.3, ++: <0.5, +: <0.7).

[2] = tested on: NCI-H526 cell line; test: Cell viability assay for NCI-H526 cell line (EZ-Cytox); details: Homo sapiens, NCI-H526, 120 h; H526 cells, 5 days, 3000 nM to 0.46 nM
Method: (§1) 3. Cell Viability Assay for NCI-H69, NCI-H526 Cell Lines
(§2) (1) Culture of NCI-H69, NCI-H526 Cell Lines
(§3) The NCI-H69 (hereafter H69) and NCI-H526 (hereafter H526) cell lines were purchased from KCLB.
(§4) (2) Treatment of Compounds of the Present Invention and Method of Cell Viability Assay
(§5) After treating the compound to each well to make the total volume of 200 μl, it was cultured in a CO2 incubator (Thermo Fisher Scientific) for 5 days. […] The absorbance of the completely cultured sample was measured by setting the wavelength of a plate reader (BMG Labtech) to […], and was measured after shaking for 3 minutes in a plate reader before measurement.
(§6) The results of cell viability for H526 and H69 cell line are shown in Table 3 and Table 4, respectively.
(§7) In Table 3 and Table 4, Activity represents IC50 value of each Exemplary Compound treatment group to H526 and H69 cell line, respectively (A: <30 nM, B: <50 nM, C: <100 nM, D: <200 nM, E: <400 nM).

[3] = tested on: NCI-H69 cell line; test: Cell viability assay for NCI-H69 cell line (EZ-Cytox); details: Homo sapiens, NCI-H69, 120 h; H69 cells, 5 days, 3000 nM to 0.46 nM
Method: as §1, §2, §3, §4, §5, §6, §7

[4] = tested on: MRC-5 cell line; test: Cell viability assay for MRC-5 cell line (EZ-Cytox); details: Homo sapiens, MRC5, 120 h; MRC-5 normal cell line, 5 days, 10000 nM to 1.52 nM; read-out: Activity: IC50 value, cell viability, MRC-5 cell line (Exemplary Compounds)
Method: 4. Cell Viability Assay for MRC-5 Cell Line
(1) Culture of MRC-5 Cell Line
The MRC-5 cell line was purchased from KCLB. Passage of cultured cells was maintained within P15.
(2) Treatment of Compounds of the Present Invention
Then, it was cultured in 37° C. CO2 incubator (Thermo Fisher Scientific) for 5 days.
(3) Cytotoxicity Experiment
CO2 incubator for 4 hours.

| SMILES | Activity: ratio of the luminescence value of compound treatment group to DMSO treatment group [1] | IC50 [2] | IC50 [3] | IC50 [4] |
| --- | --- | --- | --- | --- |
| COc1cc(C(=O)NN2CCC(CCN3CCN(c4cnc(C5CCC(=O)NC5=O)cc4F)CC3)CC2)ccc1Nc1ncc2c(n1)N(C(C)C)CC(F)(F)C(=O)N2C (stereo not shown) [Compound 21, 4-((7,7-difluoro-9-isopropyl-5-methyl-6-oxo-6,7,8,9-tetrahydro-5H-pyrimido[4,5-b][1,4]diazepin-2-yl)amino)-N-(4-(2-(4-(6-(2,6-dioxopiperidin-3-yl)-4-fluoropyridin-3-yl)piperazin-1-yl)ethyl)piperidin-1-yl)-3-methoxybenzamide] | +++ (+++: <0.3) | < 0.03 µM | < 0.03 µM | > 10 µM |
| COc1cc(C(=O)NN2CCC(CCN3CCN(c4cc(OC)c(C5CCC(=O)NC5=O)cc4F)CC3)CC2)ccc1Nc1ncc2c(n1)N(C(C)C)CC(F)(F)C(=O)N2C (stereo not shown) [Compound 7, 4-((7,7-difluoro-9-isopropyl-5-methyl-6-oxo-6,7,8,9-tetrahydro-5H-pyrimido[4,5-b][1,4]diazepin-2-yl)amino)-N-(4-(2-(4-(4-(2,6-dioxopiperidin-3-yl)-2-fluoro-5-methoxyphenyl)piperazin-1-yl)ethyl)piperidin-1-yl)-3-methoxybenzamide] | ++ (++: <0.5) | < 0.05 µM | < 0.05 µM | > 10 µM |
| COc1cc(C(=O)NC2CCC(N(C)CC3CCN(c4ccc(NC5CCC(=O)NC5=O)cc4F)CC3)CC2)ccc1Nc1ncc2c(n1)N(C(C)C)CC(F)(F)C(=O)N2C (stereo not shown) [Compound 26, 4-((7,7-difluoro-9-isopropyl-5-methyl-6-oxo-6,7,8,9-tetrahydro-5H-pyrimido[4,5-b][1,4]diazepin-2-yl)amino)-N-((1r,4r)-4-(((1-(4-((2,6-dioxopiperidin-3-yl)amino)-2-fluorophenyl)piperidin-4-yl)methyl)(methyl)amino)cyclohexyl)-3-methoxybenzamide] | ++ (++: <0.5) | < 0.03 µM | < 0.03 µM | > 10 µM |
| COc1cc(C(=O)NN2CCC(CCN3CCN(c4ccc(NC5CCC(=O)NC5=O)c(F)c4)CC3)CC2)ccc1Nc1ncc2c(n1)N(C(C)C)CC(F)(F)C(=O)N2C (stereo not shown) [Compound 33, 4-((7,7-difluoro-9-isopropyl-5-methyl-6-oxo-6,7,8,9-tetrahydro-5H-pyrimido[4,5-b][1,4]diazepin-2-yl)amino)-N-(4-(2-(4-(4-((2,6-dioxopiperidin-3-yl)amino)-3-fluorophenyl)piperazin-1-yl)ethyl)piperidin-1-yl)-3-methoxybenzamide] | ++ (++: <0.5) | < 0.03 µM | < 0.03 µM | > 10 µM |
| COc1cc(C(=O)N[C@H]2CC[C@H](CN(C)C3CCN(c4ccc(C5CCC(=O)NC5=O)nc4)CC3)CC2)ccc1Nc1ncc2c(n1)N(C1CCCC1)CC(F)(F)C(=O)N2C (stereo partly shown) [Compound 9, 4-((9-cyclopentyl-7,7-difluoro-5-methyl-6-oxo-6,7,8,9-tetrahydro-5H-pyrimido[4,5-b][1,4]diazepin-2-yl)amino)-N-((1r,4r)-4-(((1-(6-(2,6-dioxopiperidin-3-yl)pyridin-3-yl)piperidin-4-yl)(methyl)amino)methyl)cyclohexyl)-3-methoxybenzamide] | ++ (++: <0.5) | < 0.03 µM | < 0.03 µM | > 10 µM |
| CCN1CC(F)(F)C(=O)N(C)c2cnc(Nc3ccc(C(=O)NC4CCC(N(C)CC5CCN(c6ccc(NC7CCC(=O)NC7=O)cc6F)CC5)CC4)cc3OC)nc21 (stereo not shown) [Compound 27, N((1r,4r)-4-(((1-(4-((2,6-dioxopiperidin-3-yl)amino)-2-fluorophenyl)piperidin-4-yl)methyl)(methyl)amino)cyclohexyl)-4-((9-ethyl-7,7-difluoro-5-methyl-6-oxo-6,7,8,9-tetrahydro-5H-pyrimido[4,5-b][1,4]diazepin-2-yl)amino)-3-methoxybenzamide] | +++ (+++: <0.3) | < 0.03 µM | < 0.03 µM | > 10 µM |

Second part, led by results:

| Activity: ratio of the luminescence value of compound treatment group to DMSO treatment group [1] | SMILES | IC50 [2] | IC50 [3] | IC50 [4] |
| --- | --- | --- | --- | --- |
| +++ (+++: <0.3) | COc1cc(C(=O)NN2CCC(CCN3CCN(c4ccc(N(C)C5CCC(=O)NC5=O)cc4F)CC3)CC2)ccc1Nc1ncc2c(n1)N(C(C)C)CC(F)(F)C(=O)N2C (stereo not shown) [Compound 38, 4-((7,7-difluoro-9-isopropyl-5-methyl-6-oxo-6,7,8,9-tetrahydro-5H-pyrimido[4,5-b][1,4]diazepin-2-yl)amino)-N-(4-(2-(4-(4-((2,6-dioxopiperidin-3-yl)(methyl)amino)-2-fluorophenyl)piperazin-1-yl)ethyl)piperidin-1-yl)-3-methoxybenzamide] | < 0.03 µM | < 0.03 µM | > 10 µM |
| ++ (++: <0.5) | COc1cc(-c2nnc(CN3CCC(CCN4CCN(c5cc(F)c(NC6CCC(=O)NC6=O)cc5F)CC4)CC3)o2)ccc1Nc1ncc2c(n1)N(C1CCCC1)CC(F)(F)C(=O)N2C (stereo not shown) [Compound 65, 3-((4-(4-(2-(1-((5-(4-((9-cyclopentyl-7,7-difluoro-5-methyl-6-oxo-6,7,8,9-tetrahydro-5H-pyrimido[4,5-b][1,4]diazepin-2-yl)amino)-3-methoxyphenyl)-1,3,4-oxadiazol-2-yl)methyl)piperidin-4-yl)ethyl)piperazin-1-yl)-2,5-difluorophenyl)amino)piperidine-2,6-dione] | < 0.1 µM | < 0.2 µM | > 10 µM |
| ++ (++: <0.5) | COc1cc(C(=O)NC2CC3(CCN(CC4CCN(c5cc(OC)c(NC6CCC(=O)NC6=O)cc5F)CC4)CC3)C2)c(F)cc1Nc1ncc2c(n1)N(C(C)C)CC(F)(F)C(=O)N2C (stereo not shown) [Compound 52, 4-((7,7-difluoro-9-isopropyl-5-methyl-6-oxo-6,7,8,9-tetrahydro-5H-pyrimido[4,5-b][1,4]diazepin-2-yl)amino)-N-(7-((1-(4-((2,6-dioxopiperidin-3-yl)amino)-2-fluoro-5-methoxyphenyl)piperidin-4-yl)methyl)-7-azaspiro[3.5]nonan-2-yl)-2-fluoro-5-methoxybenzamide] | < 0.03 µM | < 0.03 µM | > 10 µM |
| ++ (++: <0.5) | COc1cc(C(=O)NC2CCN(CCN3CCN(c4cc(F)c(NC5CCC(=O)NC5=O)cc4F)CC3)CC2)ncc1Nc1ncc2c(n1)N(C1CCCC1)CC(F)(F)C(=O)N2C (stereo not shown) [Compound 68, 5-((9-cyclopentyl-7,7-difluoro-5-methyl-6-oxo-6,7,8,9-tetrahydro-5H-pyrimido[4,5-b][1,4]diazepin-2-yl)amino)-N-(1-(2-(4-(4-((2,6-dioxopiperidin-3-yl)amino)-2,5-difluorophenyl)piperazin-1-yl)ethyl)piperidin-4-yl)-4-methoxypicolinamide] | < 0.05 µM | < 0.1 µM | > 10 µM |
